# Measured values reported in publication PMC8438977, “Isolation of bioactive compounds from medicinal plants used in traditional medicine: Rautandiol B, a potential lead compound against Plasmodium falciparum” (BMC Complementary Medicine and Therapies, 2021).
# Like-named read-outs stand apart in the source and are kept apart here.
# Assays:
# [1] = test system: Mycobacterium tuberculosis H37Rv (ATCC 27294); test: Mycobacterium tuberculosis assay (Microplate Alamar Blue Assay, MIC); format: cell-based; conditions: pure compounds and controls, read-out: MTB H37Rv (MIC μM)
# [2] = test system: Plasmodium falciparum TM4/8.2; test: Antimalaria assay, [3H] hypoxanthine incorporation, TM4/8.2 strain; format: cell-based
# Experimental: (§1) Plasmodium falciparum TM4/8.2 and K1CB1 strains were maintained in RPMI 1640 medium supplemented with 8% human serum, 2.5 mM HEPES and 2 g/L sodium bicarbonate. Parasite cultures were incubated at 37 °C in a 3% CO2 incubator. The crude extracts/pure compounds were tested against TM4/8.2 and K1CB1 P. falciparum in vitro by the modified [^3H] hypoxanthine incorporation assay. Briefly, stock solutions of the crude extracts or pure compounds were prepared in DMSO. Various concentrations of the samples were incubated with malaria parasites with a final volume of 225 μL, 1% parasitemia, 1.5% hematocrit, 0.1% dimethylsulfoxide (DMSO) in 96-well plates. Plates were incubated for 16–18 h. Then, 25 μL [^3H]-hypoxanthine solution was added and incubated for 20 h. The parasites were harvested onto a UniFilter-96 GF/B plate (PerkinElmer, USA). The filters in the plates were air-dried, and then 25 μL of liquid scintillation fluid (Microscint, Packard) was added. The radioactivity was then measured using a microplate scintillation counter (TopCount, Packard). The IC50 values of the crude extracts/ pure compounds were determined.
# [3] = test system: Plasmodium falciparum K1CB1; test: Antimalaria assay, [3H] hypoxanthine incorporation, K1CB1 strain; format: cell-based; conditions: for IC50: Plasmodium falciparum, read-out: P. f (IC50 μM) K1CB1
# Experimental: as §1
# [4] = test system: T. brucei rhodesiense (STIB-900); test: Anti-trypanosomal assay (Alamar Blue, 72 h); format: cell-based, Trypanosoma brucei rhodesiense
# Experimental: T. brucei rhodesiense (STIB-900) was maintained in Minimal Essential Medium (MEM) with Earle’s salts supplemented with 3 g/L sodium bicarbonate, 4.5 g/L glucose, 25 mM HEPES, pH 7.3, 0.05 mM bathocuproinedisulfonic acid disodium salt, 1.5 mM L-cysteine, 1 mM hypoxanthine, 0.16 mM thymidine, 1 mM sodium pyruvate, 0.2 mM 2-mercaptoethanol, 1% MEM non-essential amino acid, and 15% heated fetal bovine serum, at 37 °C in a 5% CO2 incubator. To assay anti-Tbr activity, a modified reported protocol was used. Briefly, 2 × 10^4 T. brucei rhodesiense parasites in 175 μL culture media were incubated with 25 μL of varying concentrations of each compound in a 96-well plate under the same culture conditions. Following 72 h incubation, 20 μL Alamar Blue (a resazurin solution) was added in each well. The mixture was further incubated for 3 h. The fluorescence signals were measured by a spectrofluorometer at ex530/em585 nm.
# α-glucosidase (AG) = target: T1, α-glucosidase (AG) (Saccharomyces cerevisiae, UniProt P53341); test: biochemical; parameters: species or system S. cerevisiae; conditions: for inhibition at 250 µg/mL: samples 250 μg/mL in 50% DMSO, read-out: % Inhibition (AGI activity); for IC50: in 50% DMSO
# T1 construct: purchased Sigma
# Experimental: AGI values of extracts and pure phytochemicals were quantitatively determined in a 96-well plastic plate according to the method described by Nguyen et al.. The enzyme was incubated with the samples dissolved in DMSO for 5 min before adding the substrate. The inhibition was measured spectrophotometrically in 20 mM sodium phosphate buffer pH 6.0 at 37 °C using 3.0 mM p-nitrophenyl α-D-glucopyranoside (Sigma) as the substrate and 0.25 units/mL of AG from S. cerevisiae (Sigma). The absorbance at 405 nm was measured using a microplate reader (BioTek ELx808 microplate reader, USA).
# [5] = earlier reports; cited from earlier work
# VERO cells = test system: VERO cells; parameters: method as in PMID 32798746; conditions: cited from earlier work
# BHK21 cells = test system: BHK21 cells; parameters: method as in PMID 32798746; conditions: cited from earlier work
# α-amylase (AA) = test: α-amylase inhibitory activity (AAI), starch-iodine assay; format: biochemical; conditions: in 50% DMSO
# Experimental: AAI values were determined using a microplate-based starch–iodine assay. Assay reactions were initiated by adding 40 μL of starch (Sigma S-2630) solution (2.0 g/L) and 40 μL of enzyme in 0.1 M phosphate buffer at pH 7.0 to microplate wells. The enzyme was incubated with the samples for 5 min before adding the substrate. To minimize evaporative loss during incubation, a plastic mat was used to cover the microplate. […] Following color development, the absorbance at 580 nm was measured using a microplate reader (Bio-TEK ELx808 microplate reader, USA).
# [6] = pure compounds and controls, strain TM4/8.2, read-out: P. f (IC50 μM) TM4/8.2
# [7] = pure compounds and controls, strain K1CB1
# [8] = pure compounds and control; 72 h; read-out: T. br (IC50 μM)
# [9] = Trypanosoma brucei, RHODESIENSE; pure compounds and control; 72 h; read-out: T. br (IC50 μM)
# [10] = read-out: P. f (IC50 μM) TM4/8.2
# [11] = Trypanosoma brucei, RHODESIENSE, 72 h, pure compounds and control; 72 h; read-out: T. br (IC50 μM)
# T1 sequence (P53341 whole entry): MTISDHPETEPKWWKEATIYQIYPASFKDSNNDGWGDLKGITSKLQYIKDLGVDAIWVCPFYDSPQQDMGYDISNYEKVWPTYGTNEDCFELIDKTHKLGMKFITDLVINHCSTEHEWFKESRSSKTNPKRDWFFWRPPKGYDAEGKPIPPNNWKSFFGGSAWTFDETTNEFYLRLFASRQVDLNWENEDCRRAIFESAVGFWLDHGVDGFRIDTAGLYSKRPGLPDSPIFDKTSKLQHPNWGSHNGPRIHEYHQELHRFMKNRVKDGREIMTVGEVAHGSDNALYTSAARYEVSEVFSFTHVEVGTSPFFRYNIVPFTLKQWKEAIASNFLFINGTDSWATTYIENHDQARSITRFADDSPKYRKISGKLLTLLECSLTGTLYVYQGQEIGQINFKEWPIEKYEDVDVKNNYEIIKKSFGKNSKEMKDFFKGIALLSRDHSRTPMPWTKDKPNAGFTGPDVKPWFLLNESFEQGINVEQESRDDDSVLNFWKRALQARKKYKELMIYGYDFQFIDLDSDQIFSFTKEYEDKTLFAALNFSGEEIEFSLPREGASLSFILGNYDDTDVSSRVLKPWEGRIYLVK
Structure (SMILES),MIC [1] [µM],"IC50 [2, 6] [µM]","IC50 [3, 7] [µM]",inhibition at 250 µg/mL (α-glucosidase (AG)) [%],"IC50 [4, 11] [µM]",other results
"NNC(=O)c1ccncc1 [Isoniazid, reference compound]",0.02,,,,,
"COc1ccc(C2COc3cc4occc4cc3C2=O)c(OC)c1OC (stereo not drawn) [Compound 16, nepseudin]",> 56.4,> 28.2,> 28.2,,,
CC(C)=CCc1cc2c(cc1O)OC[C@H]1c3cc4c(cc3O[C@@H]21)OCO4,,,,,,"SR (safety ratio), T. brucei rhodesiense [4]: > 5.83; IC50 [4, 8]: 4.87 ± 0.49 µM"
"COc1cc2c(cc1O)[C@H]1Oc3cc4c(cc3[C@H]1CO2)OCO4 [Compound 19, (−)-2-hydroxypterocarpin]",> 56.8,> 28.4,> 28.4,,,melting point: 223 to 225 °C
"CO[C@H]1/C=C/O[C@@]2(C)Oc3c(C)c(O)c4c(O)c(c(/C=N/N5CCN(C)CC5)c(O)c4c3C2=O)NC(=O)/C(C)=C\C=C\[C@H](C)[C@H](O)[C@@H](C)[C@@H](O)[C@@H](C)[C@H](OC(C)=O)[C@@H]1C [Rifampin, reference compound]",0.08,,,,,
"CCc1nc(N)nc(N)c1-c1ccc(Cl)cc1 [Pyrimethamine, reference compound]",,0.095 ± 0.02,23.2 ± 2.24,,,
"COc1ccc2c(c1)OCC(c1cc3c(cc1OC)OCO3)C2=O (stereo not drawn) [Compound 12, 7-methoxy-3-(6-methoxybenzo [d] [1,3]dioxol-5-yl) chroman-4-one]",,,,17.7 ± 0.3,,melting point: 133 to 135 °C
"O=C1c2cc3ccoc3cc2O[C@@H]2COc3cc4c(cc3[C@H]12)OCO4 [Compound 14, dolineon]",> 59.9,,,54.2 ± 8.9,,"IC50 [4, 9]: 18.7 ± 3.2 µM; IC50 (α-glucosidase (AG)): 660 µM; IC50 [2, 10]: > 29.6 µM; IC50 [3]: > 29.6 µM"
"COc1cc2c(cc1-c1coc3cc4occc4cc3c1=O)OCO2 [Compound 22, dehydroneotenone]",> 61.7,> 30.9,> 30.9,,,
"C=C(C)C1Cc2c(ccc3c2O[C@@H]2COc4cc(OC)c(OC)cc4[C@]2(O)C3=O)O1 (stereo partly drawn) [Compound 21, 12a-hydroxyrotenone]",> 55.2,,,19.9 ± 11.4,,"IC50 [4, 9]: 8.63 ± 1.14 µM; IC50 [2, 10]: > 27.6 µM; IC50 [3]: > 27.6 µM; cytotoxicity [5]: cytotoxic"
"CC1(C)N=C(N)N=C(N)N1c1ccc(Cl)cc1 [Cycloguanil, reference compound]",,0.076 ± 0.016,10.7 ± 1.62,,,
"O=c1c(O)c(-c2ccc(O)cc2)oc2cc(O)cc(O)c12 [Compound 1, kempherol]",> 20,> 50,> 50,,10.3 ± 0.38,"IC50 [4, 8]: 8.74 ± 0.49 µM; SR (safety ratio), T. brucei rhodesiense ([4]; safety ratio): 3.3"
"CC(C)(O)C1Cc2cc3c(cc2O1)OC[C@H]1c2ccc(O)cc2O[C@@H]31 (stereo partly drawn) [Compound 24, rautandiol B]",> 20,0.4 ± 0.07,0.74 ± 0.29,29.3 ± 3.1,23.5 ± 1.59,"melting point: 209 to 213 °C; cytotoxicity on VERO cells (VERO cells): non-cytotoxic; SR (safety ratio), P. falciparum K1CB1 ([3]; safety ratio): 133; cytotoxicity on BHK21 cells (BHK21 cells): non-cytotoxic"
"OC[C@H]1O[C@@H](OCCc2ccc(O)cc2)[C@H](O)[C@@H](O)[C@@H]1O [Compound 4, salidroside]",> 20,> 100,> 100,47.7 ± 1.8,> 100,IC50 (α-glucosidase (AG)): 1380 µM
"O=c1c(O)c(-c2ccc(O)c(O)c2)oc2cc(O)cc(O)c12 [Compound 2, quercetin]",> 20,> 50,> 50,,8.44 ± 0.16,"IC50 [4, 8]: 8.91 ± 0.03 µM; SR (safety ratio), T. brucei rhodesiense ([4]; safety ratio): 4.52"
"c1cc2cc3c(cc2o1)OC[C@H]1c2cc4c(cc2O[C@@H]31)OCO4 [Compound 6, neodulin]",> 64.9,> 32.5,> 32.5,,,
"c1cc2cc3c(cc2o1)OCc1c-3oc2cc3c(cc12)OCO3 [Compound 5, neoduleen]",> 62.1,> 31,> 31,,,
"O=C1c2cc3ccoc3cc2O[C@]2(O)COc3cc4c(cc3[C@H]12)OCO4 [Compound 13, 12a-hydroxydolineon]",,,,,,melting point: 155 to 156 °C
"CC(C)=CCc1cc2c(cc1O)OC[C@@H]1c3cc4c(cc3O[C@H]21)OCO4 [Compound 15, (−)-2-isopentenyl-3-hydroxy-8-9-methylenedioxypterocarpan]",> 56.8,> 28.4,> 28.4,31.5 ± 2.1,4.87 ± 0.49,"SR (safety ratio), T. brucei rhodesiense ([4]; safety ratio): > 5.83"
"COc1cc2c(cc1C1COc3cc4occc4cc3C1=O)OCO2 (stereo not drawn) [Compound 11, neotenone]",> 62,> 31,> 31,,17 ± 1.83,melting point: 174 to 175 °C
"COc1cc2c(cc1-c1cc3cc4ccoc4cc3oc1=O)OCO2 [Compound 10, pachyrrhizine]",> 64.7,,,,,"IC50 [2, 10]: > 32.3 µM; IC50 [3]: > 32.3 µM"
"Oc1cc(O)c2c(c1)O[C@H](c1ccc(O)c(O)c1)[C@@H](O)C2 [Compound 3, (+)-catechin]",> 20,,> 100,97.5 ± 0.6,> 100,"IC50 (α-glucosidase (AG)): 360 µM; IC50 [2, 10]: > 100 µM; IC50 (α-amylase (AA)): 2260 µM"
"N=C(N)c1ccc(OCCCCCOc2ccc(C(=N)N)cc2)cc1 [Pentamidine, reference compound]",,,,,0.007 ± 4e-05,
"C=C(C)[C@H]1Cc2c(ccc3c2O[C@@H]2COc4cc(OC)c(OC)cc4[C@@H]2C3=O)O1 [Compound 20, rotenone]",> 52.3,,,,,"IC50 ([4]; Trypanosoma brucei, RHODESIENSE, 72 h, read-out: T. br (IC50 μM)): 7.51 ± 0.17 µM; IC50 [2, 10]: > 26.2 µM; IC50 [3]: > 26.2 µM; cytotoxicity [5]: cytotoxic"
"CC1(C)Oc2cc3c(cc2CC1O)[C@@H]1Oc2cc(O)ccc2[C@@H]1CO3 (stereo partly drawn) [Compound 23, rautandiol A]",,,,83.9 ± 1,,IC50 (α-glucosidase (AG)): 280 µM; melting point: 194 to 196 °C
